Data on 63 compounds can be found in PMC9775191, “A Subset Screen of the Compounds Australia Scaffold Library Identifies 7-Acylaminodibenzoxazepinones as Potent and Selective Hits for Anti-Giardia Drug Discovery” (Biomedicines, 2022).

The assay concerns G. duodenalis BRIS/91/HEPU/1279. In words: Primary Giardia screen at 10 µM (live-cell imaging, automated counting). The class given is cell-based, Giardia duodenalis. Conditions: for % Inhibition n=1 48h / % Inhibition n=1 24h: first singlicate assay; for % Inhibition n=2 24h / % Inhibition n=2 48h: re-assessment. A digest of the protocol: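 Percent growth versus 0.2% DMSO vehicle, background-corrected with media-only wells, is reported at 24 and 48 h from automated live-cell counts. Testing used 10 μM final in a 3% O2 atmosphere, with plate quality checked by Z' factor.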

As to `CC1CCN(CCCNC(=O)c2ccc(-c3nc(-c4ccccc4)no3)cc2)CC1` [SN00795676], the “% Inhibition n=1 48h” value is reported as 23.6%.
Regarding `O=C(c1cccc(-c2nc(-c3ccc(F)cc3)no2)c1)N1CCN(c2ccccc2)CC1` [SN00795713], the “% Inhibition n=1 48h” value is given as 0.9%.
For `CC(C)(C)Nc1c(-c2ccc(F)cc2)nc2sc(N3CCN(Cc4ccccn4)CC3)nn12` [SN00795823], the “% Inhibition n=1 48h” value came out at 32.2%.
As for `COc1ccc(C)cc1NC(=O)Nc1c(-c2ccncc2)[nH]c2c(Cl)cccc12` [SN00795853], the “% Inhibition n=1 48h” value amounted to 0.0%.
On to `CC1(C(=O)NCc2cccc(F)c2)CCCN(C(=O)Cc2cccs2)C1` (centres unmarked) [SN00795886], for which the “% Inhibition n=1 48h” value turned out to be 29.2%.
`COc1ccc(S(=O)(=O)N2CCCC(C)(C(=O)NCc3ccc(F)cc3)C2)cc1` (centres unmarked) [SN00795932]: the “% Inhibition n=1 48h” value was determined as 8.4%.
Take `CCCC(=O)Nc1cc(F)c2nc(N3CCCCC3)ccc2c1` [SN00795955]: the “% Inhibition n=1 48h” value was determined as 0.0%.
On to `O=S(=O)(Cc1ccccc1)Nc1cccc(-c2nnc(Cc3ccc4c(c3)OCO4)o2)c1` [SN00795993], for which the “Average % Inhibition 24h” value worked out at 17.2%, the “% Inhibition n=1 24h” value is given as 34.4%, the “% Inhibition n=2 24h” value was found to be 0.0% and the “Average % Inhibition 48h” value amounted to 46.9%. Besides, the “% Inhibition n=1 48h” value was determined as 80.2% and the “% Inhibition n=2 48h” value was found to be 13.6%.
For the compound `COc1cccc(-n2ccn3cc(-c4ccc(OC)c(OC)c4)nc3c2=O)c1` [SN00796018], the “% Inhibition n=1 48h” value turned out to be 36.9%.
Same read-out and setting: the figure for `Cc1ccc(S(=O)(=O)N2CCC3(CC2)NCCN=C3NC2CCCCCC2)c(C)c1` [SN00796055] is 0.0%; for `CCCNC(=O)N1CCN(Cc2nc3cccnc3n2-c2ccc(CC)cc2)CC1` [SN00796091] it is 0.0%.
For `Cc1cccc(-n2c(CN3CCN(C(=O)NCC4CCCO4)CC3)nc3cccnc32)c1` (centres unmarked) [SN00796109], the “% Inhibition n=1 48h” value is on record as 0.7%.
Consider `COc1ccc(-n2c(CN3CCN(S(=O)(=O)c4cc(C)ccc4C)CC3)nc3cccnc32)cc1` [SN00796116], for which the “% Inhibition n=1 48h” value is given as 13.7%.
For the compound `CCc1ccc(-n2c(CN3CCN(S(C)(=O)=O)CC3)nc3cccnc32)cc1` [SN00796120], the “% Inhibition n=1 48h” value came out at 7.0%.
Take `Cn1cc2c(n1)c(=O)n(Cc1ccccc1)c(=O)n2CC(=O)Nc1cccc(F)c1` [SN00796169]: the “Average % Inhibition 24h” value is 30.6%, the “% Inhibition n=1 24h” value is recorded as 37.8%, the “% Inhibition n=2 24h” value was 23.4% and the “Average % Inhibition 48h” value worked out at 62.8%. Also, the “% Inhibition n=1 48h” value is reported as 46.9% and the “% Inhibition n=2 48h” value is listed as 78.6%.
Turning to `COc1ccccc1-c1nc(C2CCN(C(=O)COc3ccccc3)CC2)no1` [SN00796215], the “% Inhibition n=1 48h” value is given as 15.9%.
For `O=C(Cc1csc2nc(-c3ccccc3)cn12)NCCc1cccs1` [SN00796222], the “% Inhibition n=1 48h” value stood at 0.0%.
On to `Cc1ccc(-n2nc(C)c3sc(N4CCCC(C(=O)NCc5ccc6c(c5)OCO6)C4)nc32)cc1` (centres unmarked) [SN00796247], for which the “% Inhibition n=1 48h” value was found to be 0.0%.
As for `Cc1ccc(-n2nc(C)c3sc(N4CCCC(C(=O)NCC5CCCO5)C4)nc32)cc1` (centres unmarked) [SN00796250], the “% Inhibition n=1 48h” value is listed as 2.9%.
On the same count and under the same terms, to `Cc1ccc(NC(=O)Nc2ccc3c(c2)CCN3S(=O)(=O)c2ccccc2)cc1` [SN00796277] belongs 10.0%; to `Cc1c(F)cccc1NC(=O)Nc1ccc2c(c1)CCN2S(C)(=O)=O` [SN00796291], 21.1%; to `Cc1sc2cc(-c3ccccc3)oc2c1C(=O)NCc1ccccc1` [SN00796296], 20.2%.
As to `COc1ccc(CNC(=O)c2c(C)sc3cc(-c4ccccc4)oc23)cc1` [SN00796298], the “% Inhibition n=1 48h” value worked out at 29.4%.
Turning to `COc1ccc(Cl)cc1NC(=O)Nc1ccc2c(c1)CN(Cc1ccccc1)C2` [SN00796317], the “Average % Inhibition 24h” value turned out to be 8.8%, the “% Inhibition n=1 24h” value is 17.7%, the “% Inhibition n=2 24h” value came to 0.0% and the “Average % Inhibition 48h” value came out at 37.5%. Also, the “% Inhibition n=1 48h” value turned out to be 57.6% and the “% Inhibition n=2 48h” value is 17.4%.
`Cc1ccc(NC(=O)Nc2ccc3c(c2)CN(Cc2ccccc2)C3)c(C)c1` [SN00796327]: the “% Inhibition n=1 48h” value was determined as 41.2%.
On to `O=C(c1nnn(-c2ccccc2Cl)c1-c1ccncc1)N1CCc2ccccc2C1` [SN00796355], for which the “% Inhibition n=1 48h” value amounted to 30.9%.
On to `O=C(NCC1CC1)c1nnn(-c2ccccc2)c1-c1ccncc1` [SN00796358], for which the “% Inhibition n=1 48h” value amounted to 0.0%.
Regarding `CCOC(=O)N1CCN(c2cc(-c3nc(-c4cccc(OC)c4OC)no3)c3ccccc3n2)CC1` [SN00796395], the “% Inhibition n=1 48h” value came out at 18.1%.
As to `COc1cccc(-c2noc(-c3cc(N4CCN(C(C)=O)CC4)nc4ccccc34)n2)c1OC` [SN00796396], the “% Inhibition n=1 48h” value is listed as 7.7%.
On to `CC(C)C(=O)N1CCc2c(c(COCc3ccccc3F)nn2C)C1` [SN00796410], for which the “% Inhibition n=1 48h” value was 0.0%.
In the case of `COCC(=O)N1CCc2c(c(COCc3ccc(C)cc3)nn2C)C1` [SN00796424], the “% Inhibition n=1 48h” value is reported as 0.0%.
As to `Cc1ccc(COCc2nn(C)c3c2CN(C(=O)Nc2ccccc2)CC3)cc1` [SN00796435], the “% Inhibition n=1 48h” value was determined as 0.0%.
`Cc1ccc(COCc2nn(C)c3c2CN(S(=O)(=O)c2ccc(F)c(C)c2)CC3)cc1` [SN00796451]: the “% Inhibition n=1 48h” value was 2.1%.
As to `CCc1nc(N2CCCC2=O)sc1C(=O)Nc1ccc(C)c(C)c1` [SN00796500], the “% Inhibition n=1 48h” value is given as 0.0%.
As for `Cc1ccc(-c2nc(C(=O)N3CCN(c4ccc(Cl)cc4)CC3)cs2)s1` [SN00796526], the “% Inhibition n=1 48h” value amounted to 7.8%.
On to `O=C(c1nnn(-c2ccc(Cl)cc2)c1-c1cccnc1)N1CCCCC1` [SN00796543], for which the “% Inhibition n=1 48h” value amounted to 20.4%.
On the same count and under the same terms, the figure for `Cc1ccc(CNC(=O)c2ccc(-n3cnc(NC(=O)C(C)C)c3)cc2)cc1` [SN00796570] is 29.7%; for `Cc1ccc2oc(-c3noc(C4CC(=O)N(c5ccccc5)C4)n3)c(C)c2c1` (centres unmarked) [SN00796597] it is 2.9%; for `COc1ccc2oc(-c3noc(C(NC(=O)c4ccco4)C(C)C)n3)c(C)c2c1` (centres unmarked) [SN00796606] it is 9.9%.
For the compound `Cc1ccc(-c2noc(-c3ccc(N4CCN(Cc5ccc6c(c5)OCO6)CC4)nc3)n2)cc1` [SN00796635], the “% Inhibition n=1 48h” value was determined as 7.2%.
Still for that read-out and setting: the figure for `CCN1CCN(c2ccc(-c3nc(-c4cccc(F)c4)no3)cn2)CC1` [SN00796649] is 48.2%.
Same read-out and setting: the figure for `CCc1ccc(NC(=O)N2CCc3c(c(-c4nc(C)no4)nn3C)C2)cc1` [SN00796748] is 19.4%.
Same read-out and setting: the figure for `Cc1noc(-c2nn(C)c3c2CN(S(=O)(=O)Cc2cccc(F)c2)CC3)n1` [SN00796798] is 14.3%.
Turning to `Cn1nc(-c2nnc(-c3ccccc3Cl)o2)c2c1CCN(C(=O)c1ccc(F)c(F)c1)C2` [SN00796834], the “Average % Inhibition 24h” value is recorded as 6.4%, the “% Inhibition n=1 24h” value is listed as 12.9%, the “% Inhibition n=2 24h” value was 0.0% and the “Average % Inhibition 48h” value was determined as 12.8%. The “% Inhibition n=1 48h” value turned out to be 25.5% and the “% Inhibition n=2 48h” value was 0.0%.
`CCCS(=O)(=O)N1CCc2c(c(-c3nnc(-c4ccc(F)cc4)o3)nn2C)C1` [SN00796867]: the “% Inhibition n=1 48h” value is 0.0%.
For `COc1ccc(S(=O)(=O)N(C)c2ccsc2C(=O)NCCC(C)C)cc1` [SN00797030], the “% Inhibition n=1 48h” value came to 10.4%.
The same measure, in the same setting: the figure for `Cc1ccc(S(=O)(=O)N(C)c2ccsc2C(=O)Nc2ccc(C)c(C)c2)cc1` [SN00797041] is 12.0%; for `Cc1ccc(NC(=O)Cn2c(=O)nc(NC3CCCC3)c3ccccc32)cc1C` [SN00797075] it is 0.0%; for `O=C(NCc1cccc(C(F)(F)F)c1)C1CCCN(c2nccnc2Oc2ccccc2)C1` (centres unmarked) [SN00797123] it is 15.6%.
Turning to `CCC(=O)Nc1cccc(-c2noc(C3CCCN(C(=O)c4ccc(C)c(F)c4)C3)n2)c1` (centres unmarked) [SN00797220], the “% Inhibition n=1 48h” value amounted to 14.6%.
With `Cc1nc(-c2cc(S(=O)(=O)N3CCCCCC3)c(C)s2)sc1C` [SN00797236], the “% Inhibition n=1 48h” value is given as 11.8%.
Consider `CCN(c1cccc(C)c1)S(=O)(=O)c1cc(-c2nc(C)c(C)s2)sc1C` [SN00797239], for which the “% Inhibition n=1 48h” value is 10.7%.
For the compound `Cc1cc(-c2csc(S(=O)(=O)Nc3ccc(Cl)c(C(F)(F)F)c3)c2)on1` [SN00797257], the “% Inhibition n=1 48h” value was determined as 0.0%.
As to `CCCn1nccc1-c1csc(S(=O)(=O)NC(C)C)c1` [SN00797311], the “% Inhibition n=1 48h” value was found to be 9.7%.
On to `Cc1cccc(CC(=O)N2CCN(c3nc4cccnc4n(Cc4ccccc4)c3=O)CC2)c1` [SN00797319], for which the “% Inhibition n=1 48h” value came out at 38.8%.
On to `C=CCn1c(=O)c(N2CCC(NC(=O)NC3CCCC3)CC2)nc2cccnc21` [SN00797341], for which the “% Inhibition n=1 48h” value is 6.8%.
For the compound `COc1ccc(-c2nc(Cn3nnc(C(=O)Nc4ccc(F)cc4F)c3N)c(C)o2)c(OC)c1` [SN00797364], the “% Inhibition n=1 48h” value turned out to be 3.5%.
Regarding `CC1CCC(NC(=O)c2ccc(-c3noc(C4CCN(C(=O)c5ccccc5)CC4)n3)cc2)CC1` (centres unmarked) [SN00797379], the “% Inhibition n=1 48h” value was found to be 0.0%.
On to `COc1ccc(CNC(=O)c2ccc(-c3noc(C4CCCN(C(=O)c5ccccc5)C4)n3)cc2)cc1` (centres unmarked) [SN00797402], for which the “% Inhibition n=1 48h” value was 14.7%.
For the compound `Cc1ccc(NC(=O)c2ccc(-c3noc(C4CCCN(C(=O)c5ccccc5)C4)n3)cc2)cc1` (centres unmarked) [SN00797407], the “% Inhibition n=1 48h” value was found to be 5.6%.
Take `Cc1ccc(N2CC(C(=O)N3CCCC3c3nc(-c4cccc(C)c4)no3)CC2=O)cc1` (centres unmarked) [SN00797413]: the “% Inhibition n=1 48h” value is recorded as 0.0%.
Consider `Cc1ccc(C(=O)N2CCCC2c2nc(-c3cccc(C)c3)no2)cc1` (centres unmarked) [SN00797416], for which the “% Inhibition n=1 48h” value worked out at 0.0%.
As for `O=C(NCCc1ccccc1)N1CCCC1c1nc(-c2ccccc2)no1` (centres unmarked) [SN00797440], the “% Inhibition n=1 48h” value is 0.0%.
